Assay results taken from patent US7157449B2, “Medicament for the treatment of diseases caused by parasitic protozoa” (priority 2000, dated 2007).
Entries after “also recorded” stand apart in the source; their conditions may differ. Each block holds one molecule with its values, some of them ahead of it.

Experiments:
[1] = system: T. brucei; experiment: Effect of drugs on trypanosome proliferation; format: cell-based; conditions: for effect on trypanosome proliferation: DON 1, 5 μM, acivicin 1, 5, 25 μM, CPEC 250 μM, azaserine data not shown; for rescue of trypanosomes from the proliferation block asserted by DON: cytidine up to 5 mM or cytosine 1 mM
Experimental: In A), the trypanosomes were treated with no drug (squares), 1 μM DON (triangles) or 5 μM DON (diamonds). In (B), the trypanosomes were treated with no drug (filled squares), 1 μM acivicin (triangles), 5 μM acivicin (diamonds) or 25 μM acivicin (open squares). The number of trypanosomes was counted at various time-points after the drug exposure had started. It appears that DON and acivicin were both very active.
The trypanosomes were treated with DON for 1 h and then harvested and resuspended in drug-free medium. The number of trypanosomes was counted at various time-points after the release had started (triangles). A control experiment was performed where the trypanosomes were not exposed to DON but otherwise were treated exactly the same way as the drug-treated trypanosomes (squares). Each point is an average of two experiments with the standard deviation indicated by error bars.
(§1) Procyclic insect forms of T. brucei brucei AnTat 1.1 were cultured in SDM-79 medium (Brun, R. and Schoenenberger, M. (1979) Acta Trop. 36, 289–292) supplemented with 10% heat-inactivated fetal bovine serum at 27° C. Culture-adapted bloodstream forms of the T. brucei brucei cell line TC221 (Hirumi, H., Hirumi, K., Doyle, J. J. and Cross, G. A. M. (1980) Parasitology 80, 371–382) were propagated in Hirumi's modified Iscove's medium-9 (Hirumi, H. and Hirumi, K. (1989) J. Parasitology 75, 985–989) supplemented with 5% fetal bovine serum at 37° C. in a humidified atmosphere containing 7% CO2. The cultured parasites were harvested in the late logarithmic growth phase.
(§2) 6-diazo-5-oxo-L-norleucine (DON), acivicin and azaserine were bought from Sigma. They were dissolved in water and stored as 5 mM solutions at −20° C. Cyclopentenyl cytosine was a kind gift from Grant McClarty at the Dept. of Medical Microbiology, University of Manitoba, 730 William Ave, Winnipeg, Manitoba R3E OW3, Canada. It was stored as a 50 mM solution in dimethyl sulfoxide (DMSO) at 4° C. The final concentration of DMSO in the growth media of the trypanosomes never became more than 0.5% and that had no effect on the NTP pools or the proliferation of the parasites.
DON is not stable in the bloodstream and has a half-life of only a few hours in humans (Kovach, J. S., Eagan, R. T., Pawis, G., Rubin, J., Creagan, E. T. and Moertel. C. G. (1981) Cancer Treat. Rep. 65, 1031–1036; Rahman, A., Luc, V., Smith, F. P., Vrown, J., Schein, P. S. and Woolley, P. V. (1981); and Sullivan, M. P., Nelson, J. A., Feldman, S. and Nguyen, B. V. (1988) Cancer Chemother. Pharmac. 21, 78–84). Therefore, it was tested for how long the effect of a short pulse of DON lasts on trypanosome proliferation. In FIG. 5, the trypanosomes have been treated with 5 μM DON for 1 h. After the incubation, the trypanosomes were collected by centrifugation, the pellet was washed with media not containing DON and resuspended in the same media and the trypanosomes were put back into the incubator. The amount of trypanosomes was continuously recorded during the incubation. Control trypanosomes were treated the same way except that the one-hour incubation was without DON.

[2] = system: T. brucei; experiment: NTP (CTP) pools in trypanosomes after treatment with CTP synthetase inhibitors; format: cell-based; conditions: for size of the CTP pool after addition of cytidine or cytosine: up to 15 mM cytidine or 1 mM cytosine, harvested one hour later; for effect on the CTP pool: 1 h incubation, 25 and 100 μM DON, 100 μM acivicin, 25 μM CPEC
Experimental: Samples without drug (control), with 25 and 100 μM DON (DON25 and DON100, respectively), with 100 μM acivicin (Aci100) and with 25 μM CPEC (CPEC25) are shown. The unit of the ordinata is the same as in FIG. 1. The control is an average of two experiments while the others are single measurements.
as §1
1–3×10^8 trypanosomes were collected and subsequently disintegrated by 500 μl ice-cold 0,6 M trichloroacetic acid supplemented with 15 mM MgCl2. The trichloroacetic acid was removed by two extractions with 720 μl 1,1,2-trichlorotrifluoroethan (78%)/trioctylamine (22%) and the aqueous phase was saved. ⅕ of the sample was evaporated to dryness in a Speedvac (Savant), loaded onto a 4.6×125 mm Partisphere SAX-column and run by HPLC in 0,5 M ammonium phosphate pH 3,4 containing 2,5% acetonitrile at 1.5 ml/min. The procedure is further explained in previous work by the present inventors, see Hofer, A., Ekanem, J. T. and Thelander, L. (1998) J. Biol. Chem. 273, 34098–34104. A connection of the HPLC to a Flow Scintillation Analyzer (Radiomatic 150 TR, Packard) made it possible to check the radioactivity in the chromatographic peaks. For radioactivity measurements, the whole sample was usually loaded onto the column. The nucleotides were quantified by measuring the peak heights and comparing them to a standard curve.
as §2
The absolute dependence on de novo synthesis for CTP production might be exploited for chemotherapy purposes since the host can be rescued by cytidine. There are two major classes of compounds that inhibit CTP synthetase, nucleoside analogues and glutamine analogues. One nucleoside analogue, cyclopentenyl cytosine (CPEC), and two glutamine analogues, 6-diazo-5-oxo-L-norleucin (DON) and acivicin, were tested and it was observed how the CTP pool changed during the one-hour incubation period (FIG. 3). […] Next, the effect of the drugs on trypanosome growth was investigated. […] As expected. CPEC (250 μM) had no effect in this experiment either (data not shown).

[3] = system: mouse BALB/c fibroblasts; experiment: Proliferation of BALB/c fibroblasts with DON with or without hypoxanthine; format: cell-based
Experimental: The fibroblasts were seeded at a density so low that they could not get confluent within three days. […] At this point the amount of cells was indirectly counted by a method described in the section “Material and methods” below.
Mouse Balb/c fibroblasts were cultivated as monolayers in Dulbecco's Modified Eagles Medium (Sigma) supplemented with L-glutamine (0.584 g/l) and 10% heat-inactivated horse serum at 37° C. in a humidified atmosphere containing 7% CO2. The amount of fibroblasts on each plate was determined by a method were the cell-containing plates were washed with PBS pH 7.5, the cells disintegrated by a 10 min. incubation with 0.2 M NaOH at 50° C. and then the OD260-310 was measured (Suttle, D. P. and Stark, G. R. (1979) J. Biol. Chem. 254, 4602–4607). The cells were collected before confluence.
The effect of DON on trypanosomes and mammalian cells was compared as follows. […] Thus, it needed to be investigated whether or not the anti-proliferation effect on mammalian cells could be abolished, while still keeping the trypanocidal activity. In mammalian cells, DON is a powerful inhibitor of de novo purine biosynthesis. In FIG. 6, two experiments are included wherein the block on de novo purine biosynthesis have been by-passed by 10 and 160 μM hypoxanthine, respectively. Hypoxanthine is a naturally occurring purine base in the bloodstream of mammals.

[4] = system: Trypanosoma brucei rhodiense; experiment: IC50 against parasite (Swiss Tropical Institute standard method); format: cell-based
From the text: (§3) In order to determine in what range DON is effective against Plasmodium falciparum, the cause of malaria, Swiss Tropical Institute (Socinstrasse 57, P.O. Box, CH, 4002 Basel, Switzerland) performed the present experiment according to their standard methods available as a commercial service provided under secrecy (for an exact disclosure of the method, reference is made to Swiss Tropical Institute). Further, the present experiment enables a comparison between the effect of DON on both Trypanosoma brucei rhodiense and Plasmodium falciparum.

[5] = system: Plasmodium falciparum; experiment: as above; format: cell-based
From the text: as §3

[6] = human bloodstream; cited from earlier work
[7] = in vivo; cited from earlier work

Structure (SMILES): [N-]=[N+]=CC(=O)OC[C@H](N)C(=O)O [Azaserine, azaserine]
effect on trypanosome proliferation [1]: had no effect

Structure (SMILES): Nc1ccn([C@@H]2O[C@H](CO)[C@@H](O)[C@H]2O)c(=O)n1 [Cytidine, cytidine]
size of the CTP pool after addition of cytidine or cytosine [2]: no change
rescue of trypanosomes from the proliferation block asserted by DON [1]: could not rescue
effect on the DON concentration needed for a proliferation block ([3]; cytidine added instead of hypoxanthine): had no such effect

Structure (SMILES): [N-]=[N+]=CC(=O)CC[C@H](N)C(=O)O [DON, 6-diazo-5-oxo-L-norleucine]
IC50 [4]: 430 nM
IC50 ([5]; KI isolate): 520 nM
IC50 ([5]; NF54 isolate): 360 nM
effect on the CTP pool [2]: selectively lowered the CTP level; also recorded: lowered the CTP pool
effect on the UTP, ATP or GTP (purine NTP) levels ([2]; DON-treated T. brucei): without affecting the UTP, ATP or GTP levels; also recorded: did not alter the purine NTP pools
half-life [6]: a few hours
effect on trypanosome proliferation [1]: very active
concentration that completely blocked trypanosome proliferation ([1]; cultured trypanosomes, 160 μM hypoxanthine in medium): 1 µM
DON concentration needed to inhibit proliferation relative to without hypoxanthine ([3]; in the presence of 160 μM hypoxanthine): around 20 times
antiproliferative effect of DON ([3]; with 10 μM hypoxanthine (consumed during the experiment)): still high
DON concentration needed for a proliferation block ([3]; with addition of hypoxanthine): more than 20 μM
DON concentration for maximal inhibition / total block of proliferation ([3]; without purines (hypoxanthine) in the culture medium, 72 h): 1 to 2 µM

Structure (SMILES): O=c1[nH]cnc2nc[nH]c12 [Hypoxanthine, hypoxanthine]
crossing of the blood-brain barrier [7]: known to cross the blood-brain barrier

effect on the CTP pool [2]: lowered the CTP pool
Structure (SMILES): N[C@H](C(=O)O)[C@@H]1CC(Cl)=NO1 [acivicin]
GTP pool reduced by ([2]; 1 h incubation with acivicin, not shown in the figure): 50%
effect on trypanosome proliferation [1]: very active

size of the CTP pool after addition of cytidine or cytosine [2]: no change
Structure (SMILES): Nc1cc[nH]c(=O)n1 [cytosine]
rescue of trypanosomes from the proliferation block asserted by DON [1]: could not rescue
